Common to all, as to format: functional, cell-based
For one test, the system named is MCF7. The experiment in a line: Anti-proliferative activity against human MCF7 cells assessed as cell growth inhibition incubated for 72 hrs by MTT assay. The note with it: MCF7, 72 h. (Tetrazolium dyes change colour on reduction, which living cells bring about.)
A further test deals with HCC1806. The test can be described thus: Anti-proliferative activity against human HCC1806 cells assessed as cell growth inhibition incubated for 72 hrs by MTT assay. The note with it: HCC1806, 72 h.
The next test concerns MDA-MB-231. The experiment in a line: Anti-proliferative activity against human MDA-MB-231 cells assessed as cell growth inhibition incubated for 72 hrs by MTT assay. The note with it: MDA-MB-231, 72 h.
A further test has as its system Hs-578T. The experiment in a line: Anti-proliferative activity against human Hs-578T cells assessed as cell growth inhibition incubated for 72 hrs by MTT assay.

Structures are written as SMILES.

Turning to `COc1cc(Nc2cc(F)ccc2C(=O)NCCc2c[nH]c3cccc(OC)c23)cc(OC)c1OC`, the 50% inhibitory concentration (IC50) – broadly, the point on the concentration scale where inhibition reaches its midpoint – in the test on MCF7 came to 20.6 µM; with HCC1806, 18.2 µM; in the test with MDA-MB-231, 2.96 µM; in the test on Hs-578T, 34.7 µM.
For `COc1cc(Nc2cccc(F)c2C(=O)NCCc2c[nH]c3ccccc23)cc(OC)c1OC` the same measures were above 100 µM, 3.25 µM, 24.3 µM and 24.5 µM.
The matching figures for `COc1cc(Nc2cc(C(F)(F)F)ccc2C(=O)NCCc2c[nH]c3ccccc23)cc(OC)c1OC`: 58.6 µM, 52.2 µM, 22.4 µM and 84.3 µM.
Turning to `COc1cc(Nc2cc(F)ccc2C(=O)NCCc2c[nH]c3cccc(F)c23)cc(OC)c1OC`, the half-maximal inhibitory concentration (IC50) in the test on MCF7 is 0.97 µM; in the test with HCC1806 it was 0.47 µM; in the test with MDA-MB-231, 0.53 µM; with Hs-578T it was 1.86 µM.
Consider `COc1cc(Nc2cc(Br)ccc2C(=O)NCCc2c[nH]c3ccccc23)cc(OC)c1OC`, for which the IC50 with MCF7 is 3.28 µM; with HCC1806 it was 4.33 µM; in the test on MDA-MB-231, 3.75 µM; in the test on Hs-578T, above 100 µM.
The matching figures for `COc1ccc2c(CCNC(=O)c3ccc(F)cc3Nc3cc(OC)c(OC)c(OC)c3)c[nH]c2c1`: 40.4 µM, 1.75 µM, 46.7 µM and above 100 µM.
The matching figures for `COc1ccc2[nH]cc(CCNC(=O)c3ccc(F)cc3Nc3cc(OC)c(OC)c(OC)c3)c2c1`: 23.6 µM, 18 µM, 4.66 µM and above 100 µM.
In the case of `COc1cc(Nc2cc(F)ccc2C(=O)NCCc2c[nH]c3c(C)cccc23)cc(OC)c1OC`, the IC50 in the test on MCF7 is 2.12 µM; in the test on HCC1806, 3.35 µM; with MDA-MB-231 it was 1.97 µM; in the test on Hs-578T it was 2.1 µM.
For `COc1cc(Nc2cc(Cl)ccc2C(=O)NCCc2c[nH]c3ccccc23)cc(OC)c1OC`, the IC50 in the test on MCF7 was found to be 2.69 µM; in the test on HCC1806 it was 1.88 µM; in the test with MDA-MB-231 it was 2.6 µM; in the test with Hs-578T it was 13.1 µM.
The matching figures for `COc1cc(Nc2cc(F)ccc2C(=O)NCCc2c[nH]c3c(OC)cccc23)cc(OC)c1OC`: above 100 µM, 2.57 µM, 20.9 µM and 2.86 µM.
The matching figures for `COc1cc(Nc2c(F)cc(F)cc2C(=O)NCCc2c[nH]c3ccccc23)cc(OC)c1OC`: above 100 µM, above 100 µM, above 100 µM and above 100 µM.
For `COc1cc(Nc2cccc(OC)c2C(=O)NCCc2c[nH]c3ccccc23)cc(OC)c1OC` the same measures were above 100 µM, above 100 µM, above 100 µM and above 100 µM.
With `COc1cc2[nH]cc(CCNC(=O)c3ccc(F)cc3Nc3cc(OC)c(OC)c(OC)c3)c2cc1OC`, the 50% inhibitory concentration (IC50) in the test with MCF7 was 65.8 µM; with HCC1806, 91.5 µM; with MDA-MB-231 it was 94 µM; with Hs-578T, above 100 µM.
For `COc1cc(Nc2cc(F)ccc2C(=O)NCCc2c[nH]c3ccc(F)cc23)cc(OC)c1OC` the same measures were 1.38 µM, 2.4 µM, 0.83 µM and 1.37 µM.
Turning to `COc1cc(Nc2c(F)cccc2C(=O)NCCc2c[nH]c3ccccc23)cc(OC)c1OC`, the 50% inhibitory concentration (IC50) in the test with MCF7, in the test with HCC1806, with MDA-MB-231 and in the test on Hs-578T was above 100 µM in each case.
As for `COc1cc(Nc2cc(C)ccc2C(=O)NCCc2c[nH]c3ccccc23)cc(OC)c1OC`, the IC50 is above 100 µM with MCF7, 26.5 µM in the test on HCC1806, above 100 µM in the test with MDA-MB-231 and above 100 µM with Hs-578T.
With `COc1cc(Nc2ccc(Cl)cc2C(=O)NCCc2c[nH]c3ccccc23)cc(OC)c1OC`, the 50% inhibitory concentration (IC50) in the test on MCF7, in the test with HCC1806, in the test with MDA-MB-231 and in the test with Hs-578T was above 100 µM throughout.
For `COc1cc(Nc2cc(F)cc(F)c2C(=O)NCCc2c[nH]c3ccccc23)cc(OC)c1OC`, the IC50 in the test with MCF7 was above 100 µM; in the test on HCC1806, 3.14 µM; with MDA-MB-231 it was 1.66 µM; with Hs-578T, 1.03 µM.
For `COc1cc(Nc2cc(F)ccc2C(=O)NCCc2c[nH]c3cc(F)c(F)cc23)cc(OC)c1OC` the same measures were 50.6 µM, 20.2 µM, 1.68 µM and 27.3 µM.
The matching figures for `COc1cc(Nc2cc(F)ccc2C(=O)NCCc2c[nH]c3c(Cl)cccc23)cc(OC)c1OC`: 1.65 µM, 2.82 µM, 1.09 µM and 1.57 µM.
In the case of `COc1cc(Nc2cc(F)ccc2C(=O)NCCc2c[nH]c3c(C(F)(F)F)cccc23)cc(OC)c1OC`, the IC50 in the test on MCF7 is 8.98 µM; with HCC1806, 10.5 µM; in the test with MDA-MB-231, 4.03 µM; in the test with Hs-578T, 19.4 µM.
For `COc1cc(Nc2cc(F)c(F)cc2C(=O)NCCc2c[nH]c3ccccc23)cc(OC)c1OC` the same measures were above 100 µM, 8.3 µM, 41.8 µM and 4.38 µM.
The matching figures for `COc1cc(Nc2cc(F)ccc2C(=O)NCCc2c[nH]c3c(Br)cccc23)cc(OC)c1OC`: 3.56 µM, 1.94 µM, 2.44 µM and 13.1 µM.
For `COc1cc(Nc2cc(F)cc(C)c2C(=O)NCCc2c[nH]c3ccccc23)cc(OC)c1OC` the same measures were 29.4 µM, 70.7 µM, 50.4 µM and above 100 µM.
As to `COc1cc(Nc2cc(F)ccc2C(=O)NCCc2c[nH]c3cccc(C)c23)cc(OC)c1OC`, the half-maximal inhibitory concentration (IC50) came out at 2.7 µM with MCF7, 2.39 µM with HCC1806, 2.9 µM in the test on MDA-MB-231 and 3.44 µM in the test with Hs-578T.
In the case of `COc1cc(Nc2cc(F)ccc2C(=O)NCCc2c[nH]c3cc(C)ccc23)cc(OC)c1OC`, the IC50 is 74 µM with MCF7, 34.5 µM in the test with HCC1806, 11.9 µM with MDA-MB-231 and above 100 µM in the test on Hs-578T.
The matching figures for `COc1cc(Nc2cccc(C)c2C(=O)NCCc2c[nH]c3ccccc23)cc(OC)c1OC`: above 100 µM, above 100 µM, above 100 µM and above 100 µM.
The matching figures for `COc1cc(Nc2cc(F)ccc2C(=O)NCCc2c[nH]c3cc(Br)ccc23)cc(OC)c1OC`: 3.1 µM, 1.84 µM, 2.14 µM and 22.1 µM.
`COc1cc(Nc2cc(F)ccc2C(=O)NCCc2c[nH]c3cc(F)cc(F)c23)cc(OC)c1OC`: the half-inhibitory concentration (IC50) with MCF7 is 23 µM; in the test with HCC1806, 14.2 µM; in the test with MDA-MB-231, 1.47 µM; in the test on Hs-578T it was 26.4 µM.
The matching figures for `COc1cc(Nc2cc(F)ccc2C(=O)NCCc2c[nH]c3ccc(Cl)cc23)cc(OC)c1OC`: 8.75 µM, 11.3 µM, 2.2 µM and 41.3 µM.
The matching figures for `COc1cc(Nc2cc(F)ccc2C(=O)NCCc2c[nH]c3ccc(Br)cc23)cc(OC)c1OC`: 8.65 µM, 3.46 µM, 2.94 µM and 51.5 µM.
For `COc1cc(Nc2cc(F)ccc2C(=O)NCCc2c[nH]c3cc(Cl)ccc23)cc(OC)c1OC` the same measures were 12.2 µM, 8.46 µM, 3.08 µM and 57.7 µM.
Turning to `COc1cc(Nc2ccc(F)cc2C(=O)NCCc2c[nH]c3ccccc23)cc(OC)c1OC`, the IC50 with MCF7 is above 100 µM; with HCC1806 it was 12.5 µM; in the test on MDA-MB-231 it was above 100 µM; with Hs-578T it was 55.8 µM.
Consider `COc1cc(Nc2cc(F)ccc2C(=O)NCCc2c[nH]c3c(F)cccc23)cc(OC)c1OC`, for which the IC50 in the test with MCF7 came out at 0.53 µM; in the test on HCC1806 it was 0.4 µM; in the test on MDA-MB-231, 0.37 µM; in the test on Hs-578T it was 0.76 µM.
On to `COc1cc(Br)c2c(CCNC(=O)c3ccc(F)cc3Nc3cc(OC)c(OC)c(OC)c3)c[nH]c2c1`, for which the IC50 in the test on MCF7 was above 100 µM; in the test with HCC1806, above 100 µM; with MDA-MB-231, 58.2 µM; with Hs-578T it was above 100 µM.
With `COc1cc(Nc2c(C)cccc2C(=O)NCCc2c[nH]c3ccccc23)cc(OC)c1OC`, the IC50 in the test with MCF7, with HCC1806, in the test with MDA-MB-231 and in the test on Hs-578T was above 100 µM each time.
With `COc1cc(Nc2cc(F)ccc2C(=O)NCCc2c[nH]c3cc(F)ccc23)cc(OC)c1OC`, the IC50 was 5.09 µM in the test with MCF7, 8.43 µM with HCC1806, 2.65 µM in the test on MDA-MB-231 and 89.1 µM in the test on Hs-578T.
The matching figures for `COc1cc(Nc2ccc(Br)cc2C(=O)NCCc2c[nH]c3ccccc23)cc(OC)c1OC`: above 100 µM, above 100 µM, above 100 µM and above 100 µM.
In the case of `COc1cc(C)c2[nH]cc(CCNC(=O)c3ccc(F)cc3Nc3cc(OC)c(OC)c(OC)c3)c2c1`, the half-maximal inhibitory concentration (IC50) was above 100 µM in the test on MCF7, 15.1 µM with HCC1806, 2.12 µM with MDA-MB-231 and 19.8 µM with Hs-578T.
Consider `COc1cc(Nc2cc(F)ccc2C(=O)NCCc2c[nH]c3ccc(F)c(F)c23)cc(OC)c1OC`, for which the IC50 in the test with MCF7 came out at 1.86 µM; in the test on HCC1806, 0.92 µM; in the test with MDA-MB-231 it was 0.68 µM; in the test with Hs-578T it was 1.32 µM.
For `COc1cc(Nc2cc(C)c(F)cc2C(=O)NCCc2c[nH]c3ccccc23)cc(OC)c1OC` the same measures were above 100 µM, 15 µM, 93.7 µM and 47.8 µM.
As for `COc1cc(Nc2ccc(C(F)(F)F)cc2C(=O)NCCc2c[nH]c3ccccc23)cc(OC)c1OC`, the 50% inhibitory concentration (IC50) was 43.3 µM in the test on MCF7, above 100 µM in the test with HCC1806, 82.7 µM in the test with MDA-MB-231 and above 100 µM in the test on Hs-578T.

The record behind these values is ChEMBL document CHEMBL5550161, “Discovery of novel small molecules targeting the USP21/JAK2/STAT3 axis for the treatment of triple-negative breast cancer” (Eur J Med Chem, 2024).
